Tests used:
human CYP11B1 = human CYP11B1 (Homo sapiens (Human), UniProt P15538); test: G-402 cellular enzyme assay, human CYP11B1 (cortisol release); format: cell-based; conditions: G-402 cells, 1 μM Deoxycortisol
From the text: (§1) Herein we identified the use of the G-402 cell line as a host cell to ectopically express (transiently or stably) enzymes of the CYP11 family. Specifically we developed stable G-402 cells expressing ectopically human CYP11B1, human CYP11B2, human CYP11A1, cynmolgus CYP11B1 or cynomolgus CYP11B2 enzyme activity. Importantly the identified cell line G-402 expresses co-factors (adrenodoxin and adrenodoxin reductase) important for the activity of the CYP11 family and no relevant enzyme activity of the CYP11 family (in comparison to H295R cells) was detected in these cells. Therefore the G-402 cell line is uniquely suited as a host cell for the ectopic expression of enzymes from the CYP11 family. G-402 cells can be obtained from ATCC (CRL-1440) and were originally derived from a renal leiomyoblastoma.
(§2) The expression plasmids contains the ORF for either human/cyno CYP11B1 or CYP11B2 under the control of a suitable promoter (CMV-promoter) and a suitable resistance marker (neomycin). Using standard techniques the expression plasmid is transfected into G-402 cells and these cells are then selected for expressing the given resistance markers. Individual cell-clones are then selected and assessed for displaying the desired enzymatic activity using 11-Deoxycorticosterone (Cyp11B2) or 11-Deoxycortisol (Cyp11B1) as a substrate.
(§3) G-402 cells expressing CYP11 constructs were established as described above and maintained in McCoy's 5a Medium Modified, ATCC Catalog No. 30-2007 containing 10% FCS and 400 μg/ml G418 (Geneticin) at 37° C. under an atmosphere of 5% CO2/95% air. Cellular enzyme assays were performed in DMEM/F12 medium containing 2.5% charcoal treated FCS and appropriate concentration of substrate (0.3-10 uM 11-Deoxycorticosterone, 11-Deoxycortisol or Corticosterone). For assaying enzymatic activity, cells were plated onto 96 well plates and incubated for 16 h. An aliquot of the supernatant is then transferred and analyzed for the concentration of the expected product (Aldosterone for CYP11B2; Cortisol for CYP11B1). The concentrations of these steroids can be determined using HTRF assays from CisBio analyzing either Aldosterone or Cortisol.
(§4) Inhibition of the release of produced steroids can be used as a measure of the respective enzyme inhibition by test compounds added during the cellular enzyme assay. The dose dependent inhibition of enzymatic activity by a compound is calculated by means of plotting added inhibitor concentrations (x-axes) vs. measured steroid/product level (y-axes). The inhibition is then calculated by fitting the following 4-parameter sigmoidal function (Morgan-Mercer-Flodin (MMF) model) to the raw data points using the least squares method:
(§5) [formula] wherein, A is the maximum y value, B is the EC50 factor determined using XLFit, C is the minimum y value and D is the slope value.
(§6) EC50 values for compounds claimed herein were tested with the G402-based assay system described. Cyp11B2 enzyme activity was tested in presence of 1 μM Deoxycorticosterone and variable amounts of inhibitors; Cyp11B1 enzyme activity was tested in presence of 1 μM Deoxycortisol and variable amounts of inhibitors.

human CYP11B2 = human CYP11B2 (Homo sapiens (Human), UniProt P19099); test: G-402 cellular enzyme assay, human CYP11B2 (aldosterone release); format: cell-based; conditions: G-402 cells, 1 μM Deoxycorticosterone
From the text: as §1, §2, §3, §4, §5, §6

Chain of human CYP11B2 (P19099 25-503): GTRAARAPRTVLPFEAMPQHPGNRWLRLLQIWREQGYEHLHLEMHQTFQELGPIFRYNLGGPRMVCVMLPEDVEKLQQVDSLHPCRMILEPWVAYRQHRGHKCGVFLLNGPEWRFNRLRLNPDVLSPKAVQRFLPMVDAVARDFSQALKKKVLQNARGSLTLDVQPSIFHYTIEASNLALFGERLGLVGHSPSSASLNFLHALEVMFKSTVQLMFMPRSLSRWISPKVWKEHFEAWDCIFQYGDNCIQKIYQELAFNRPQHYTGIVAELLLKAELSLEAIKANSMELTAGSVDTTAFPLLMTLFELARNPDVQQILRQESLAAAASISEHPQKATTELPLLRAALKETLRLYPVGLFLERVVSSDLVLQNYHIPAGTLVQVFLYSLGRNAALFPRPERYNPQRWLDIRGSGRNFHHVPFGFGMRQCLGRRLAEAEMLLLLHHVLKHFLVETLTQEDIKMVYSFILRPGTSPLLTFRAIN
Chain of human CYP11B1 (P15538 25-503): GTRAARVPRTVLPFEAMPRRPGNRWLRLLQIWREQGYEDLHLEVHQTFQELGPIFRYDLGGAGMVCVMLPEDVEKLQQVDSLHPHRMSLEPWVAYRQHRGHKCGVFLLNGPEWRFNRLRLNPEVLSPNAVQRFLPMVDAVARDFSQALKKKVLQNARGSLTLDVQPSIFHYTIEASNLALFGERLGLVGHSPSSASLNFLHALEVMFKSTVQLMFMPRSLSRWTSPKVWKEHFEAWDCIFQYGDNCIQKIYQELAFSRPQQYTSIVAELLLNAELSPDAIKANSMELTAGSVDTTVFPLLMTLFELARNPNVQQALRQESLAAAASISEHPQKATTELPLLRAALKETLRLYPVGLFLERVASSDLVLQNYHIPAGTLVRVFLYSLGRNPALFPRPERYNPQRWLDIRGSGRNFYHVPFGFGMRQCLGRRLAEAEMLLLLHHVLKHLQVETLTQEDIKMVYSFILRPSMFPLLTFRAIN

Row | EC50 (human CYP11B1) | EC50 (human CYP11B2) | SMILES
1 | 0.084 µM | 0.009 µM | CCOC(=O)CC1CCc2c(-c3ccc(C(F)(F)F)c(F)c3)cncc21 (racemic) [Example 1, (rac)-Ethyl 2-[4-[3-fluoro-4-(trifluoromethyl)phenyl]-6,7-dihydro-5H-cyclopenta[c]pyridin-7-yl]acetate]
2 | 0.199 µM | 0.017 µM | CNC(=O)CC1CCc2c(-c3ccc(C(F)(F)F)c(F)c3)cncc21 (racemic) [Example 2, (rac)-2-[4-[3-Fluoro-4-(trifluoromethyl)phenyl]-6,7-dihydro-5H-cyclopenta[c]pyridin-7-yl]-N-methyl-acetamide]
3 | 0.069 µM | 0.013 µM | CCNC(=O)CC1CCc2c(-c3ccc(C(F)(F)F)c(F)c3)cncc21 (racemic) [Example 3, (rac)-2-[4-[3-Fluoro-4-(trifluoromethyl)phenyl]-6,7-dihydro-5H-cyclopenta[c]pyridin-7-yl]-N-ethyl-acetamide]
4 | 0.112 µM | 0.021 µM | CCCNC(=O)CC1CCc2c(-c3ccc(C(F)(F)F)c(F)c3)cncc21 (racemic) [Example 4, (rac)-2-[4-[3-Fluoro-4-(trifluoromethyl)phenyl]-6,7-dihydro-5H-cyclopenta[c]pyridin-7-yl]-N-propyl-acetamide]
5 | 0.217 µM | 0.013 µM | O=C(CC1CCc2c(-c3ccc(C(F)(F)F)c(F)c3)cncc21)NC1CC1 (racemic) [Example 5, (rac)-N-Cyclopropyl-2-[4-[3-fluoro-4-(trifluoromethyl)phenyl]-6,7-dihydro-5H-cyclopenta[c]pyridin-7-yl]acetamide]
6 | 0.331 µM | 0.024 µM | O=C(CC1CCc2c(-c3ccc(C(F)(F)F)c(F)c3)cncc21)NCC1CC1 (racemic) [Example 6, (rac)-N-(Cyclopropylmethyl)-2-[4-[3-fluoro-4-(trifluoromethyl)phenyl]-6,7-dihydro-5H-cyclopenta[c]pyridin-7-yl]acetamide]
7 | 0.582 µM | 0.032 µM | COCCNC(=O)CC1CCc2c(-c3ccc(C(F)(F)F)c(F)c3)cncc21 (racemic) [Example 7, (rac)-2-[4-[3-Fluoro-4-(trifluoromethyl)phenyl]-6,7-dihydro-5H-cyclopenta[c]pyridin-7-yl]-N-(2-methoxyethyl)acetamide]
8 | 0.01 µM | 0.002 µM | O=C(CC1CCc2c(-c3ccc(C(F)(F)F)c(F)c3)cncc21)N1CCCCC1 (racemic) [Example 8, (rac)-2-[4-[3-Fluoro-4-(trifluoromethyl)phenyl]-6,7-dihydro-5H-cyclopenta[c]pyridin-7-yl]-1-(1-piperidyl)ethanone]
9 | 0.152 µM | 0.02 µM | O=C(CC1CCc2c(-c3ccc(C(F)(F)F)c(F)c3)cncc21)N1CCOCC1 (racemic) [Example 9, (rac)-2-[4-[3-Fluoro-4-(trifluoromethyl)phenyl]-6,7-dihydro-5H-cyclopenta[c]pyridin-7-yl]-1-morpholino-ethanone]
10 | 0.18 µM | 0.017 µM | O=C(CC1CCc2c(-c3ccc(C(F)(F)F)c(F)c3)cncc21)Nc1ccon1 (racemic) [Example 10, (rac)-2-[4-[3-Fluoro-4-(trifluoromethyl)phenyl]-6,7-dihydro-5H-cyclopenta[c]pyridin-7-yl]-N-isoxazol-3-yl-acetamide]
11 | 0.03 µM | 0.008 µM | O=C(CC1CCc2c(-c3ccc(C(F)(F)F)c(F)c3)cncc21)Nc1cc[nH]n1 (racemic) [Example 11, (rac)-2-[4-[3-Fluoro-4-(trifluoromethyl)phenyl]-6,7-dihydro-5H-cyclopenta[c]pyridin-7-yl]-N-(1H-pyrazol-3-yl)acetamide]
12 | 9.37 µM | 0.067 µM | CN(C)C(=O)CC1CCc2c(-c3ccc(C(F)(F)F)cc3F)cncc21 (racemic) [Example 13, (rac)-2-[4-[2-Fluoro-4-(trifluoromethyl)phenyl]-6,7-dihydro-5H-cyclopenta[c]pyridin-7-yl]-N,N-dimethyl-acetamide]
13 | 2.12 µM | 0.044 µM | CCN(C)C(=O)CC1CCc2c(-c3ccc(C(F)(F)F)cc3F)cncc21 (racemic) [Example 14, (rac)-N-Ethyl-2-[4-[2-fluoro-4-(trifluoromethyl)phenyl]-6,7-dihydro-5H-cyclopenta[c]pyridin-7-yl]-N-methyl-acetamide]
14 | 1.31 µM | 0.018 µM | CC(C)N(C)C(=O)CC1CCc2c(-c3ccc(C(F)(F)F)cc3F)cncc21 (racemic) [Example 15, (rac)-2-[4-[2-Fluoro-4-(trifluoromethyl)phenyl]-6,7-dihydro-5H-cyclopenta[c]pyridin-7-yl]-N-isopropyl-N-methyl-acetamide]
15 | 0.211 µM | 0.006 µM | CN(C(=O)CC1CCc2c(-c3ccc(C(F)(F)F)cc3F)cncc21)C1CC1 (racemic) [Example 16, (rac)-N-Cyclopropyl-2-[4-[2-fluoro-4-(trifluoromethyl)phenyl]-6,7-dihydro-5H-cyclopenta[c]pyridin-7-yl]-N-methyl-acetamide]
16 | 0.745 µM | 0.029 µM | CCN(C(=O)CC1CCc2c(-c3ccc(C(F)(F)F)cc3F)cncc21)C1CC1 (racemic) [Example 17, (rac)-N-Cyclopropyl-N-ethyl-2-[4-[2-fluoro-4-(trifluoromethyl)phenyl]-6,7-dihydro-5H-cyclopenta[c]pyridin-7-yl]acetamide]
17 | 2.68 µM | 0.048 µM | O=C(CC1CCc2c(-c3ccc(C(F)(F)F)cc3F)cncc21)N1CCC1 (racemic) [Example 18, (rac)-1-(Azetidin-1-yl)-2-[4-[2-fluoro-4-(trifluoromethyl)phenyl]-6,7-dihydro-5H-cyclopenta[c]pyridin-7-yl]ethanone]
18 | 1.16 µM | 0.045 µM | O=C(CC1CCc2c(-c3ccc(C(F)(F)F)cc3F)cncc21)N1CC(CO)C1 (racemic) [Example 19, (rac)-2-[4-[2-Fluoro-4-(trifluoromethyl)phenyl]-6,7-dihydro-5H-cyclopenta[c]pyridin-7-yl]-1-[3-(hydroxymethyl)azetidin-1-yl]ethanone]
19 | 1.49 µM | 0.053 µM | COC1CN(C(=O)CC2CCc3c(-c4ccc(C(F)(F)F)cc4F)cncc32)C1 (racemic) [Example 20, (rac)-2-[4-[2-Fluoro-4-(trifluoromethyl)phenyl]-6,7-dihydro-5H-cyclopenta[c]pyridin-7-yl]-1-(3-methoxyazetidin-1-yl)ethanone]
20 | 0.507 µM | 0.012 µM | O=C(CC1CCc2c(-c3ccc(C(F)(F)F)cc3F)cncc21)N1CCCC1 (racemic) [Example 21, (rac)-2-[4-[2-Fluoro-4-(trifluoromethyl)phenyl]-6,7-dihydro-5H-cyclopenta[c]pyridin-7-yl]-1-pyrrolidin-1-yl-ethanone]
21 | 0.278 µM | 0.006 µM | C[C@H]1CCCN1C(=O)CC1CCc2c(-c3ccc(C(F)(F)F)cc3F)cncc21 (mixture of isomers) [Example 22, (rac)-2-[4-[2-Fluoro-4-(trifluoromethyl)phenyl]-6,7-dihydro-5H-cyclopenta[c]pyridin-7-yl]-1-[(2S)-2-methylpyrrolidin-1-yl]ethanone]
22 | 1.89 µM | 0.027 µM | CCOC(=O)CC1CCCc2c(-c3ccc(C(F)(F)F)cc3F)cncc21 (racemic) [Example 23, (rac)-Ethyl 2-[4-[2-fluoro-4-(trifluoromethyl)phenyl]-5,6,7,8-tetrahydroisoquinolin-8-yl]acetate]
23 | 0.085 µM | 0.005 µM | OCCC1CCCc2c(-c3ccc(C(F)(F)F)cc3F)cncc21 (racemic) [Example 24, (rac)-2-[4-[2-Fluoro-4-(trifluoromethyl)phenyl]-5,6,7,8-tetrahydroisoquinolin-8-yl]ethanol]
24 | 1.04 µM | 0.011 µM | CNC(=O)CC1CCCc2c(-c3ccc(C(F)(F)F)cc3F)cncc21 (racemic) [Example 25, (rac)-2-[4-[2-Fluoro-4-(trifluoromethyl)phenyl]-5,6,7,8-tetrahydroisoquinolin-8-yl]-N-methyl-acetamide]

Source: US9636339B2, “Phenyl-dihydropyridine derivatives as aldosterone synthase inhibitors” (Hoffmann-La Roche Inc., priority 2013, dated 2017)
